BigSolDB 2.1

CCc1cccc2c3c([nH]c12)C(CC)(CC(=O)O)OCC3 (stereo unspecified)
solubility (mole fraction)
Details | 278.15 K | 283.15 K | 288.15 K | 293.15 K | 298.15 K | 303.15 K | 308.15 K | 313.15 K | 318.15 K | 323.15 K
in acetone | 0.0935 | 0.101 | 0.109 | 0.117 | 0.127 | 0.136 | 0.147 | 0.157 | 0.168 | 0.178
in dichloromethane | 0.00979 | 0.0124 | 0.0155 | 0.019 | 0.0229 | 0.0271 | – | – | – | –
in isobutanol | 0.0224 | 0.0265 | 0.0316 | 0.0382 | 0.0476 | 0.0594 | 0.0707 | 0.086 | 0.104 | 0.123
in isobutyl acetate | 0.0428 | 0.0475 | 0.0529 | 0.0584 | 0.0649 | 0.07 | 0.0774 | 0.0861 | 0.0959 | 0.108
in isopentyl acetate | 0.0413 | 0.0457 | 0.0509 | 0.0563 | 0.0629 | 0.068 | 0.0758 | 0.084 | 0.0944 | 0.105
in isopropanol | 0.0267 | 0.0307 | 0.0363 | 0.0444 | 0.0547 | 0.0669 | 0.078 | 0.0907 | 0.109 | 0.127
in methyl acetate | 0.0464 | 0.0519 | 0.0578 | 0.0638 | 0.0687 | 0.0769 | 0.0834 | 0.0921 | 0.101 | 0.111
in n-butanol | 0.0371 | 0.0422 | 0.0485 | 0.0573 | 0.0675 | 0.078 | 0.0873 | 0.0994 | 0.117 | 0.135
in n-butyl acetate | 0.0455 | 0.0507 | 0.0563 | 0.0627 | 0.0682 | 0.0748 | 0.0825 | 0.0915 | 0.101 | 0.111
in n-pentyl acetate | 0.0453 | 0.0503 | 0.0558 | 0.0621 | 0.0666 | 0.0738 | 0.0803 | 0.0892 | 0.0983 | 0.108
in n-propanol | 0.0342 | 0.0391 | 0.0452 | 0.0548 | 0.0648 | 0.0751 | 0.0849 | 0.0969 | 0.114 | 0.131
in toluene | 0.00117 | 0.00147 | 0.0019 | 0.0024 | 0.00316 | 0.00394 | 0.00501 | 0.0065 | 0.00838 | 0.0108
